According to article PMC9467586, “Development of novel 9-O-substituted-13-octylberberine derivatives as potential anti-hepatocellular carcinoma agents” (Journal of Enzyme Inhibition and Medicinal Chemistry, 2022):

Legend:
Hep3B cells = assay: In vitro antiproliferative MTT assay, Hep3B cells; assay type: cell-based, human; details: Homo sapiens, 72 h, mean ± SD (n = 3)
Experimental: (§1) HepG2, Sk-Hep-1, Huh-7, Hep3B and L-02 cells were purchased from Nanjing Key Gen Biotech Co. Ltd. (Nanjing, China). The cytotoxicity of test compounds was determined using an MTT assay. Briefly, the cell lines were incubated at 37 °C in a humidified 5% CO2 incubator for 24 h in 96-microwell plates. After medium removal, 100 μL of culture medium with 0.1% DMSO containing test compounds at different concentrations was added to each well and incubated at 37 °C for another 72 h. The MTT (5 mg/mL in PBS) was added and incubated for another 4 h, the optical density was detected with a microplate reader at 490 nm. The IC50 values were calculated according to the dose-dependent curves. All the experiments were repeated in at least three independent experiments.

Sk-Hep-1 cells = assay: In vitro antiproliferative MTT assay, Sk-Hep-1 cells; assay type: cell-based, human; details: Homo sapiens, SK-HEP1, 72 h, mean ± SD (n = 3)
Experimental: as §1

HepG2 cells = assay: In vitro antiproliferative MTT assay, HepG2 cells; assay type: cell-based, human; details: Homo sapiens, 72 h, mean ± SD (n = 3), read-out: IC50 (antiproliferative activity against HepG2 cells)
Experimental: as §1

Huh-7 cells = assay: In vitro antiproliferative MTT assay, Huh-7 cells; assay type: cell-based, human; details: Homo sapiens, 72 h, mean ± SD (n = 3)
Experimental: as §1

[1] = tested on: human hepatoma cells including HepG2, Sk-Hep-1 and Huh-7 cells; assay: Antiproliferative MTT assay, summary over human hepatoma cells; assay type: cell-based; details: read-out: IC50 values against human hepatoma cells (span over cell lines)
Experimental: as §1

[2] = Aqueous solubility measurement by HPLC; assay type: physicochemical; details: PBS (50 mM, aqueous buffer, thermodynamic from solid); PBS (pH 7.4), 25 °C, HPLC; read-out: Solubility
Experimental: Berberine, 3c and 6k (5 mg) were dissolved in 1 ml PBS (50 mM, pH 7.4) at 25 °C. The suspension was sonicated for 30 min and then centrifuged at 15000 g for 5 min. The supernatant was filtered through a PTFE filter (0.2 μm) slowly. Then 10 μL filtered solution was injected into the HPLC system (Shimadzu DGU-20A3R) on a Shimadzu-GL WondaSil C18-WR column and quantified using the standard curves made by the corresponding known concentrations of berberine, 3c and 6k. The eluent was methanol/water (65/35, v/v) at a flow rate of 1.0 ml/min with the detection wavelength at 254 nm.

normal hepatocytes L-02 = assay: MTT cytotoxicity assay, normal hepatocytes L-02; assay type: cell-based; details: Hepatocyte; normal hepatocytes L-02, MTT, 72 h, mean ± SD (n = 3)
Experimental: as §1

duplex DNA (F10T) = assay: FRET-melting assay, F10T (duplex DNA model); assay type: binding; details: 2 μM compounds
[3] = tested on: H22 liver cancer xenograft; assay: In vivo anti-HCC assay, H22 liver cancer xenograft mouse model; design: species or system mice; details: 30 mg/kg, intravenous, once a day for 21 days, H22 mice
Experimental: Five-week-old male Institute of Cancer Research (ICR) mice were purchased from Shanghai SLAC Laboratory Animals Co. Ltd. Briefly, a total of 1 × 10^6 H22 cells were subcutaneously inoculated into the right flank of ICR mice according to protocols of tumour transplant research, to initiate tumour growth. After incubation for one day, mice were weighed and randomly divided into 5 groups of 8 animals. The groups were administered berberine (30 mg/kg) and 6k (15 or 30 mg/kg) in a vehicle of 10% DMF/2% Tween 80/88% saline, respectively. Vehicle and cyclophosphamide (20 mg/kg) were employed as negative and positive controls, respectively. Treatments were performed by intravenous injection once per day for a total of 21 consecutive days. Body weights and tumour volumes were measured every 2 days. The mice were sacrificed after the treatments, and the tumours were excised and weighed. The tumour volume and inhibition rate (w/w) were calculated as follows: tumour volume = L × W^2/2, where L is the length and W is the width; tumour inhibitory ratio (%) = (1-average tumour weight of treated group/average tumour weight of control group) × 100%. All procedures were performed following institutional approval in accordance with the NIH Guide for the Care and Use of Laboratory Animals.

c-MYC G4 DNA (FPu18T) = assay: FRET-melting assay, FPu18T (c-MYC G4 DNA model); details: 2 μM compounds
[4] = LWP coefficient (log D) measurement, shake flask; assay type: physicochemical; details: 1-octanol/phosphate buffer (PBS); 1-octanol/PBS pH 7.4, shake flask, 37 °C; read-out: Log D
Experimental: Berberine, 3c and 6k of 1 mg were dissolved in three centrifugal tubes (5 ml) containing phosphate buffer (pH 7.4)-saturated 1-octanol solution (2 mL), followed by the addition of 1-octanol saturated PBS (2 mL). Each tube was vigorously mixed for 1 min and then shaken for 6 h at a speed of 1000 rpm at 37 °C. The mixtures were then centrifuged. 1 mL of 1-octanol phase and 1 mL of buffer were separately collected. Each phase was diluted to a suitable concentration and analysed by HPLC (Shimadzu DGU-20A3R) on a Shimadzu-GL WondaSil C18-WR column (λ = 254 nm) with an eluent of methanol/water (65/35, v/v, 1.0 ml/min). The log D value for each compound was calculated from the ratio of the peak areas using the following equation: Log D = log (Areaoct × x/Areabuf × y). x, y is the dilution factor.

SMILES: COc1ccc2cc3[n+](cc2c1OC)CCc1cc2c(cc1-3)OCO2 [Berberine]
- IC50 (Hep3B cells): > 50 µM
- IC50 (Sk-Hep-1 cells): > 50 µM
- IC50 (HepG2 cells): > 50 µM
- IC50 (Huh-7 cells): > 50 µM
- IC50 [1]: > 50 µM
- solubility at 30 min [2]: 1360 µg/mL
- IC50 (normal hepatocytes L-02): > 50 µM
- ΔTm(B) = Tm(F10T + compound) - Tm(F10T) (duplex DNA (F10T)): 2.0 °C
- tumour inhibitory rate (TIR, w/w) [3]: 47.3%
- ΔTm(A) = Tm(FPu18T + compound) - Tm(FPu18T) (c-MYC G4 DNA (FPu18T)): 1.2 °C
- logD [4]: -0.98
